Data on 13 molecules can be found in patent US20120157439A1, “RAF INHIBITOR COMPOUNDS AND METHODS OF USE THEREOF” (GENENTECH, INC., priority 2009, published 2012).

The target of this test is T1, V600E full-length B-Raf (Homo sapiens, UniProt P15056, V600E).
T1 construct: 1 μM FSBA-MEK and 20 nM V600E full-length B-Raf; made in house; host or cells: sf9 insect cells (baculovirus)
The test can be described thus: B-Raf IC50 Assay (B-RAF V600E inhibition assay, Example A). The test is classed as biochemical. In a few lines: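 Full-length V600E B-Raf (20 nM, from Sf9 baculovirus) was preincubated 15 min with 1 μM FSBA-modified wild-type MEK in pH 7.2 Pipes/KCl/MgCl2 buffer, then started with 4 μM ATP plus [γ-33P]ATP. After 60 min at 22 °C, TCA-quenched product was filter-captured and 33P incorporation counted by scintillation.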

The mark [1] stands for this setting: B-Raf V600E assay of Example A: less than 100 nM, read-out: IC50.
Setting [2] is: B-Raf V600E assay of Example A: less than about 1 μM, read-out: IC50.
Where [3] appears, read: incorporation of radio labeled phosphate from [γ-33P]ATP into FSBA-modified wild-type MEK, 4 μM ATP, 20 nM V600E full-length B-Raf, 60-minute incubation, 22° C., read-out: BRAF V600E IC50.

Where two headings read alike, the source gives them in different places.

T1 sequence (P15056 whole entry V600E): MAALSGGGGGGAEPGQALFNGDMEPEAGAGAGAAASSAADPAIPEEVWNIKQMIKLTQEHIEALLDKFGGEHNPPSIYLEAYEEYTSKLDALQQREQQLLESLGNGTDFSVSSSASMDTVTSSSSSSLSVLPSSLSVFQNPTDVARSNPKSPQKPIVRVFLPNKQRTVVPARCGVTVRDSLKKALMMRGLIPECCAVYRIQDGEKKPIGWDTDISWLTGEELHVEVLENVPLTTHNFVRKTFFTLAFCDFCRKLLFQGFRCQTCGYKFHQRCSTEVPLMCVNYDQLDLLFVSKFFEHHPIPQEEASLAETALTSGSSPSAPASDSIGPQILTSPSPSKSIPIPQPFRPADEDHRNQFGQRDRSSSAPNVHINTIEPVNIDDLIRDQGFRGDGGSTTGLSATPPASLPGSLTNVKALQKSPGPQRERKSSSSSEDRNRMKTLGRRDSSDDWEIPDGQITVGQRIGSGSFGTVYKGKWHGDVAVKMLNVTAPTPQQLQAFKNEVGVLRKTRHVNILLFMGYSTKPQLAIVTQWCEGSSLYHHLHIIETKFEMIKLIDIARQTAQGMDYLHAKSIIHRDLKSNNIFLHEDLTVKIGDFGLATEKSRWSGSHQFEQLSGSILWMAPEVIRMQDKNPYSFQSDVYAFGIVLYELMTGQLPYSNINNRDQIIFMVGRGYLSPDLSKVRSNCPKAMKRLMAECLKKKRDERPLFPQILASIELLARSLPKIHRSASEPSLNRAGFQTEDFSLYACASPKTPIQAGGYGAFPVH

On to `Nc1ncnc2c(C(=O)Nc3c(F)ccc(NS(=O)(=O)CCCF)c3F)nsc12` [Example 31, 7-Amino-isothiazolo[4,5-d]pyrimidine-3-carboxylic acid [2,6-difluoro-3-(3-fluoro-propane-1-sulfonylamino)-phenyl]-amide], for which the concentration for half-maximal inhibition (IC50) by setting is: under setting [1], less than 100 nM; under setting [2], less than 1000 nM; under setting [3], 0.82 nM.

Turning to `CCCS(=O)(=O)Nc1cc(F)cc(NC(=O)c2csc3c(N)ncnc23)c1Cl` [Example 17, 4-Amino-thieno[3,2-d] pyrimidine-7-carboxylic acid [2-chloro-5-fluoro-3-(propane-1-sulfonyl-amino)-phenyl]-amide], the IC50 under setting [1] was less than 100 nM, the IC50 under setting [2] was less than 1000 nM and the IC50 under setting [3] is 1.4 nM.

On to `CCCS(=O)(=O)Nc1cccc(NC(=O)c2nsc3c(N)ncnc23)c1C#N` [Example 33, 7-Amino-isothiazolo[4,5-d]pyrimidine-3-carboxylic acid [2-cyano-3-(propane-1-sulfonylamino)-phenyl]-amide], for which the IC50 was less than 100 nM under setting [1], less than 1000 nM under setting [2] and 0.38 nM under setting [3].

Turning to `CCCS(=O)(=O)Nc1ccc(F)c(NC(=O)c2csc3c(NCC(C)(C)C)ncnc23)c1F` [Example 58, 4-(2,2-Dimethyl-propylamino)-thieno[3,2-d] pyrimidine-7-carboxylic acid [2,6-difluoro-3-(propane-1-sulfonylamino)-phenyl]-amide], the IC50 is less than 1000 nM under setting [2] and 902 nM under setting [3].

For the molecule `CCCS(=O)(=O)Nc1ccc(F)c(NC(=O)c2csc3c(CC)ncnc23)c1F` [Example 41, 4-Ethyl-thieno[3,2-d]pyrimidine-7-carboxylic acid [2,6-difluoro-3-(propane-1-sulfonylamino)-phenyl]-amide], the 50% inhibitory concentration (IC50) by setting is: under setting [2], less than 1000 nM; under setting [3], 112 nM.

For the molecule `O=C(Nc1c(Cl)ccc(NS(=O)(=O)CCCF)c1F)c1csc2c(NC3CC3)ncnc12` [Example 84, 4-Cyclopropyl-amino-thieno [3,2-d] pyrimidine-7-carboxylic acid [6-chloro-2-fluoro-3-(3-fluoropropane-1-sulfonyl-amino)-phenyl]-amide], the IC50 under setting [1] is less than 100 nM, the IC50 under setting [2] was less than 1000 nM and the IC50 under setting [3] is 0.25 nM.

Take `Nc1ncnc2c(C(=O)Nc3c(Cl)ccc(NS(=O)(=O)CCCF)c3F)csc12` [Example 13, 4-Amino-thieno[3,2-d]pyrimidine-7-carboxylic acid[6-chloro-2-fluoro-3-(3-fluoro-propane-1-sulfonylamino)-phenyl]-amide]: the IC50 is less than 100 nM under setting [1], less than 1000 nM under setting [2] and 0.1 nM under setting [3].

As to `CCCS(=O)(=O)Nc1ccc(F)c(NC(=O)c2c[nH]c3c(C)ncnc23)c1F` [Example 106, 4-Methyl-5H-pyrrolo[3,2-d]pyrimidine-7-carboxylic acid [2,6-difluoro-3-(propane-1-sulfonylamino)-phenyl]-amide], the concentration for half-maximal inhibition (IC50) under setting [2] was less than 1000 nM and the IC50 under setting [3] stood at 189 nM.

On to `CCCS(=O)(=O)Nc1cc(F)c(F)c(NC(=O)c2csc3c(NC)ncnc23)c1F` [Example 92, 4-Methyl-amino-thieno[3,2-d] pyrimidine-7-carboxylic acid [2,3,6-trifluoro-5-(propane-1-sulfonyl-amino)-phenyl]-amide], for which the IC50 runs as follows: under setting [1], less than 100 nM; under setting [2], less than 1000 nM; under setting [3], 13.2 nM.

Regarding `CC(C)CS(=O)(=O)Nc1ccc(Cl)c(NC(=O)c2csc3c(N)ncnc23)c1F` [Example 22, 4-Amino-thieno[3,2-d] pyrimidine-7-carboxylic acid [6-chloro-2-fluoro-3-(2-methyl-propane-1-sulfonylamino)-phenyl]-amide], the 50% inhibitory concentration (IC50) is less than 100 nM under setting [1], less than 1000 nM under setting [2] and 2 nM under setting [3].

Consider `CCCS(=O)(=O)Nc1ccc(Cl)c(NC(=O)c2csc3c(NC4COC4)ncnc23)c1Cl` [Example 68, 4-(Oxetan-3-ylamino)-thieno[3,2-d] pyrimidine-7-carboxylic acid [2,6-dichloro-3-(propane-1-sulfonyl-amino)-phenyl]-amide], for which the concentration for half-maximal inhibition (IC50) was less than 100 nM under setting [1], less than 1000 nM under setting [2] and 1.8 nM under setting [3].

For the molecule `CCCS(=O)(=O)Nc1ccc(Cl)c(NC(=O)c2csc3c(NCC)ncnc23)c1Cl` [Example 76, 4-Ethylamino-thieno[3,2-d] pyrimidine-7-carboxylic acid [2,6-dichloro-3-(propane-1-sulfonyl-amino)-phenyl]-amide], the IC50 by setting is: under setting [1], less than 100 nM; under setting [2], less than 1000 nM; under setting [3], 0.6 nM.

As for `CCCS(=O)(=O)Nc1ccc(F)c(NC(=O)c2snc3c(N)ncnc23)c1F` [Example 34, 7-Amino-isothiazolo[4,3-d]pyrimidine-3-carboxylic acid [2,6-difluoro-3-(propane-1-sulfonylamino)-phenyl]-amide], the IC50 reads like this: under setting [1], less than 100 nM; under setting [2], less than 1000 nM; under setting [3], 5 nM.
